Laboratory results: US10626125B2, “1,1,1-trifluoro-3-hydroxypropan-2-yl carbamate derivatives as MAGL inhibitors” (PFIZER INC., priority 2017, dated 2020)
Where two headings read alike, the source gives them in different places.

What was measured:
[1] = target: T1, human recombinant Monoacylglycerol Lipase (Homo sapiens, UniProt Q99685); test: MAGL enzymatic assay (IC50; 7-HCA substrate added at T=0 min or T=30 min); assay type: biochemical; conditions: geometric mean of 2-5 determinations unless otherwise indicated
T1 sequence (Q99685 1-303): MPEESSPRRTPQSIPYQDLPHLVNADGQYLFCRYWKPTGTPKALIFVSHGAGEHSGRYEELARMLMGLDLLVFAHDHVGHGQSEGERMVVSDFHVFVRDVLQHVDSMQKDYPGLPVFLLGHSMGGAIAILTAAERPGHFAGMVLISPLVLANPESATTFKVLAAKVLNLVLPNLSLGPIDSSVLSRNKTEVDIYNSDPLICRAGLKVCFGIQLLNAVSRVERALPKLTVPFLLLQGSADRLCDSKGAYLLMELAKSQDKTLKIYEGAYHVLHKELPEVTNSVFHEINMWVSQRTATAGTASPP

[2] = target: T1, human recombinant Monoacylglycerol Lipase; test: MAGL inactivation (kinact/KI from enzyme progress curves, T=0 min protocol); conditions: from plot of Kobs vs. compound concentration, geometric mean of 2-5 determinations (b: ≥6)
[3] = MAGL (T = 30 min) IC50, substrate 7-HCA added after 30 minute incubation (T=30 min)
[4] = substrate 7-HCA added immediately (T=0 min), read-out: MAGL (T = 0 min) IC50

Compound | IC50 [1, 3] | IC50 [1, 4] | MAGL kinact/KI [2]
O=C(O[C@H](CO)C(F)(F)F)N1CCC2(CC1)CC(c1ccccn1)C2 [Example 81, (2R)-1,1,1-trifluoro-3-hydroxypropan-2-yl 2-(pyridin-2-yl)-7-azaspiro[3.5]nonane-7-carboxylate] | 4 nM | 45 nM | 20400 1/s per M
O=C(O[C@H](CO)C(F)(F)F)N1CCC2(CC1)CC(Oc1ccc(C(F)F)cn1)C2 [Example 85, (2R)-1,1,1-trifluoro-3-hydroxypropan-2-yl 2-{[5-(difluoromethyl)pyridin-2-yl]oxy}-7-azaspiro[3.5]nonane-7-carboxylate] | 0.6 nM | 4 nM | 42100 1/s per M
N#Cc1cccc(OC2CC3(CCN(C(=O)O[C@H](CO)C(F)(F)F)CC3)C2)c1 [Example 86, (2R)-1,1,1-trifluoro-3-hydroxypropan-2-yl 2-(3-cyanophenoxy)-7-azaspiro[3.5]nonane-7-carboxylate] | 0.7 nM | 9 nM | 50100 1/s per M
O=C(O[C@H](CO)C(F)(F)F)N1CCC2(CC1)CC(Oc1cc(C(F)F)ccn1)C2 [Example 89, (2R)-1,1,1-trifluoro-3-hydroxypropan-2-yl 2-{[4-(difluoromethyl)pyridin-2-yl]oxy}-7-azaspiro[3.5]nonane-7-carboxylate] | 0.8 nM | 8 nM | 31900 1/s per M
O=C(O[C@H](CO)C(F)(F)F)N1CCC2(CC1)CC(Oc1cccc(C(F)F)n1)C2 [Example 90, (2R)-1,1,1-trifluoro-3-hydroxypropan-2-yl 2-{[6-(difluoromethyl)pyridin-2-yl]oxy}-7-azaspiro[3.5]nonane-7-carboxylate] | 0.5 nM | 9 nM | 71700 1/s per M

Now from value to compound:

IC50 [1, 3] | IC50 [1, 4] | MAGL kinact/KI [2] | Compound
1 nM | 13 nM | 46200 1/s per M | O=C(O[C@H](CO)C(F)(F)F)N1CCC2(CC1)CC(c1ccnc(C(F)F)c1)C2 [Example 80, (2R)-1,1,1-trifluoro-3-hydroxypropan-2-yl 2-[2-(difluoromethyl)pyridin-4-yl]-7-azaspiro[3.5]nonane-7-carboxylate]
2 nM | 24 nM | 19300 1/s per M | O=C(O[C@H](CO)C(F)(F)F)N1CCC2(CC1)CC(c1ccc(C(F)F)nc1)C2 [Example 82, (2R)-1,1,1-trifluoro-3-hydroxypropan-2-yl 2-[6-(difluoromethyl)pyridin-3-yl]-7-azaspiro[3.5]nonane-7-carboxylate]
0.6 nM | 5 nM | 156000 1/s per M | O=C(O[C@H](CO)C(F)(F)F)N1CCC2(CC1)CC(c1cc(C(F)(F)F)ccn1)C2 [Example 83, (2R)-1,1,1-trifluoro-3-hydroxypropan-2-yl 2-[4-(trifluoromethyl)pyridin-2-yl]-7-azaspiro[3.5]nonane-7-carboxylate]
15 nM | 143 nM | 4000 1/s per M | N#Cc1ccc(C2CC3(CCN(C(=O)O[C@H](CO)C(F)(F)F)CC3)C2)nc1 [Example 84, (2R)-1,1,1-trifluoro-3-hydroxypropan-2-yl 2-(5-cyanopyridin-2-yl)-7-azaspiro[3.5]nonane-7-carboxylate]
2 nM | 26 nM | 32600 1/s per M | O=C(O[C@H](CO)C(F)(F)F)N1CCC2(CC1)CC(Oc1ccccn1)C2 [Example 87, (2R)-1,1,1-trifluoro-3-hydroxypropan-2-yl 2-(pyridin-2-yloxy)-7-azaspiro[3.5]nonane-7-carboxylate]
1 nM | 16 nM | 33000 1/s per M | O=C(O[C@H](CO)C(F)(F)F)N1CCC2(CC1)CC(Oc1ccc(F)cn1)C2 [Example 88, (2R)-1,1,1-trifluoro-3-hydroxypropan-2-yl 2-[(5-fluoropyridin-2-yl)oxy]-7-azaspiro[3.5]nonane-7-carboxylate]
